Results as given in patent publication US4629739A, “Substituted sulfonamidobenzamides and method of treating arrhythmias” (priority 1985, dated 1986).
Entries after “also recorded” stand apart in the source; their conditions may differ. Like-named read-outs stand apart in the source and are kept apart here.

How the values were obtained:
[1] = test system: canine cardiac Purkinje fibers; assay: action potential duration and upstroke by standard electrophysiological techniques in normal canine Purkinje fibres; type: cell-based
From the text: The action of the compounds of this invention is attributed to their ability to prolong the action potential of the cardiac tissue. Therefore, they are Class III antiarrhythmic agents within the Vaughan-Williams classification of antiarrhythmic agents. Such activity has been analyzed in several procedures, for instance, utilizing standard electrophysiological techniques to measure resting potential, action potential amplitude, duration, rate of rise and refractory periods of normal canine Purkinje fibres; and also utilizing re-entrant arrhythmias induced by programmed electrical stimulation in the conscious dog.

[2] = test system: re-entrant ventricular tachycardia; assay: model of re-entrant ventricular tachycardia in dogs; type: in vivo, dog; settings: anesthetized dogs; times more potent than acecainide
[3] = test system: arrhythmia; assay: therapeutic dose; settings: in vivo
[4] = test system: cardiovascular function; assay: cardiovascular / hemodynamic depression in vivo; settings: doses 10 to 30 times the therapeutic dose (1-3 mg/kg)
[5] = test system: cardiac tissue; assay: conduction and refractoriness in the cardiac tissue
[6] = local anesthetic action; settings: doses up to 50-100 times the concentration which prolongs action potential duration by 20%
[7] = test system: ganglionic and vagal transmission; assay: effects on ganglionic and vagal transmission; type: in vivo; settings: doses up to 10 mg/kg (i.e., 3-10 times the effective dose)
[8] = test system: arrhythmia; settings: cited from earlier work
[9] = test system: man; settings: cited from earlier work; for drug induced lupus erythematosis: in man
[10] = test system: cardiac tissue; settings: cited from earlier work; for effect on conduction: known drugs
[11] = test system: cardiovascular function; settings: cited from earlier work; for cardiovascular / hemodynamic depression in vivo: doses approximating the therapeutic dose; for depression of cardiac function: Class I drugs
[12] = test system: bacteria (Ames Test)
[13] = cited from earlier work
[14] = test system: cardiac action potential; settings: in vitro; Goodman & Gilman, 6th Ed., 1980, pg. 768; cited from earlier work
[15] = test system: ganglionic and vagal transmission; settings: in vivo; literature; cited from earlier work

SMILES | effect on action potential duration [1] | effect on action potential upstroke [1] | potency relative to acecainide in a model of re-entrant ventricular tachycardia [2] [times] | therapeutic dose [3] [mg/kg] | cardiovascular depression in vivo [4] | conduction disturbances in the heart / effect on conduction [5] | local anesthetic action [6] | effects on ganglionic or vagal transmission [7] | drug induced lupus erythematosis [9] | effect on conduction [10] | cardiovascular / hemodynamic depression in vivo [11] | depression of cardiac function [11] | also measured
CS(=O)(=O)Nc1ccc(C(=O)NCCNCc2ccccc2)cc1.Cl [4-[(Methylsulfonyl)amino]-N-[2-((phenylmethyl)amino)ethyl]benzamide hydrochloride] | prolong action potential duration | without slowing the action potential upstroke (it may be increased) | 10 | 1 to 3 | no evidence for cardiovascular depression | no conduction disturbances in the heart | No local anesthetic action | nor is there any evidence for effects on ganglionic or vagal transmission |  |  |  |  | 
CCCCCCCNCCNC(=O)c1ccc(NS(C)(=O)=O)cc1.Cl [N-[2-(Heptylamino)ethyl]-4-[(methylsulfonyl)amino]benzamide hydrochloride] | prolong action potential duration | without slowing the action potential upstroke (it may be increased) | 10 | 1 to 3 | no evidence for cardiovascular depression | no conduction disturbances in the heart | No local anesthetic action | nor is there any evidence for effects on ganglionic or vagal transmission |  |  |  |  | 
CCN(CC)CCNC(=O)c1ccc(NC(C)=O)cc1 [acecainide] |  |  |  |  |  |  |  |  | shown to cause lupus | little effect on conduction of the cardiac action potential | causes such depression at doses approximating the therapeutic dose |  | antiarrhythmic activity ([8]; reported): antiarrhythmic activity; incidence of lupus relative to procainamide ([9]; versus procainamide): significantly lower than for procainamide; prolongation of refractoriness ([10]; known drug): does prolong refractoriness; mutagenic activity relative to procainamide (Ames Test) [12]: one-half as active; deacetylation in man [13]: deacetylated in man
CC(C)N(CCC(C(N)=O)(c1ccccc1)c1ccccn1)C(C)C (stereo not shown) [disopyramide] |  |  |  |  |  |  |  |  |  | slowing conduction |  | depress cardiac function | 
CCN(CC)CCNC(=O)c1ccc(N)cc1 [procainamide] |  |  |  |  |  |  |  |  | drug induced lupus erythematosis | slowing conduction | causes cardiovascular depression; also recorded: causes such depression at doses approximating the therapeutic dose | depress cardiac function | therapeutic dose ([8]; in vivo, literature): 20 to 40 mg/kg; effect on action potential duration [14]: prolongs action potential duration; effect on action potential upstroke [14]: slows action potential upstroke; level showing significant mutagenic potential (Ames Test) [12]: ≤ 0.2 mg/plate; ganglionic and vagal transmission [15]: blocks ganglionic and vagal transmission
C=C[C@H]1C[N@@]2CC[C@H]1C[C@@H]2[C@@H](O)c1ccnc2ccc(OC)cc12 [quinidine] |  |  |  |  |  |  |  |  |  | slowing conduction |  | depress cardiac function | 
